From patent US20250312360A1, “MITOCHONDRIAL ANTIOXIDANT TREATMENT FOR CASK-LINKED NEURODEVELOPMENTAL DISORDERS” (Virginia Tech Intellectual Properties, Inc., priority 2022, published 2025)
“Also recorded” adds a separate entry of the source.

How the values were obtained:
[1] = test system: CASK^floxed; Calb2-cre mice; assay: Cerebellar atrophy/degeneration after CASK deletion in cerebellum, images of cerebellum with SkQ1 treatment; format: in vivo
From the text: (§1) FIG. 5A-5B.-Blocking mitochondrial ROS protects cerebellum from degenerating in absence of CASK. […] Cerebellum undergoes atrophy after P30. […] (FIG. 5B) Cerebellum undergoes atrophy in CASK^floxed; Calb2-cre mice leading to locomotor incoordination. The data represents latency time to fall in an accelerating rotarod experiment on P70. CASK^floxed. […] Data represents mean and SEM from n=3. * indicates p≤ 0.05.
With no evidence for a defect in neuronal development and biochemical evidence for mitochondrial ROS mediated neuronal death, Applicant next decided to determine if CASK loss results in the degeneration of formed neurons. In the human brain without CASK, Applicant observed astrogliosis as well as microgliosis, both hallmarks of neuronal damage and neuronal loss (Patel, Hegert et al., 2022). In the setting of a human brain without CASK, the presumptive neuronal loss occurs during the early development of the cerebellum, making it hard to further interpret the results. […]

[2] = test system: CASK^floxed; Calb2-cre mice; assay: Accelerating rotarod experiment (locomotor coordination/balance); format: in vivo; settings: P70, n=3, p≤0.05, untreated mice cannot balance on rotarod, FIG. 5B
From the text: as §1

## CC1=C(C)C(=O)C(CCCCCCCCCC[P+](c2ccccc2)(c2ccccc2)c2ccccc2)=CC1=O [SkQ1, 10-(6′-Plastoquinonyl)decyltriphenylphosphonium]
[1]; CASK^floxed, untreated cerebellum atrophies after P30 (P30 vs P100 images), FIG. 5A right panel SkQ1-treated
  cerebellar atrophy (images of cerebellum): rescue of cerebellar atrophy
[1]; CASKfloxed, summary statement on FIG. 5A-5B
  cerebellar degeneration / neurodegeneration caused by CASK deletion: can halt CASK-linked cerebellar degeneration; also recorded: effectively inhibits neurodegeneration resulting from CASK-loss
[2]
  latency time to fall in accelerating rotarod experiment (balance): balance is completely rescued
